We go through 23 molecules from PubChem BioAssay AID248 (DTP/NCI, 2004).

Several values for one entry are separate records, joined by “and”; a condition that tells them apart may be missing. Equal values may be shown once. Toxic doses and inconclusive results are not listed.

The experiment deals with L1210 leukemia ip in BDF1 mice, survival T/C. Nature of the experiment: NCI In Vivo Anticancer Drug Screen. Data for tumor model L1210 Leukemia (intraperitoneal) in B6D2F1 (BDF1) mice. Particulars: endpoint: mean survival time, higher = longer survival. In short, it runs like this:
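Tumor was transplanted into mice, which were then dosed with test compound or vehicle alone. Survival was recorded for each group, and the treated figure was expressed relative to the control figure.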

Where [1] appears, read: dose: 50.0 mg/kg/injection, schedule: Q01DX009 (ip), vehicle: Klucel (hydroxypropylcellulose) (HPC).
The mark [2] stands for this setting: dose: 100.0 mg/kg/injection, schedule: Q01DX009 (ip), vehicle: Klucel (hydroxypropylcellulose) (HPC).
[3] abbreviates: dose: 200.0 mg/kg/injection, schedule: Q01DX009 (ip), vehicle: Klucel (hydroxypropylcellulose) (HPC).
[4] abbreviates: dose: 400.0 mg/kg/injection, schedule: Q04DX002 (ip), vehicle: saline with Tween-80.
[5] abbreviates: dose: 100.0 mg/kg/injection, schedule: Q04DX003 (ip), vehicle: saline.
Setting [6] is: dose: 200.0 mg/kg/injection, schedule: Q04DX003 (ip), vehicle: saline.
The mark [7] stands for this setting: dose: 400.0 mg/kg/injection, schedule: Q04DX003 (ip), vehicle: saline.
Where [8] appears, read: dose: 100.0 mg/kg/injection, schedule: Q01DX009 (ip), vehicle: saline with Tween-80.
Where [9] appears, read: dose: 100.0 mg/kg/injection, schedule: Q04DX003 (ip), vehicle: saline with Tween-80.
Setting [10] is: dose: 200.0 mg/kg/injection, schedule: Q01DX009 (ip), vehicle: saline with Tween-80.
Where [11] appears, read: dose: 200.0 mg/kg/injection, schedule: Q04DX003 (ip), vehicle: saline with Tween-80.
[12] abbreviates: dose: 400.0 mg/kg/injection, schedule: Q01DX009 (ip), vehicle: saline with Tween-80.
The mark [13] stands for this setting: dose: 400.0 mg/kg/injection, schedule: Q04DX003 (ip), vehicle: saline with Tween-80.
The mark [14] stands for this setting: dose: 50.0 mg/kg/injection, schedule: Q01DX001 (ip), vehicle: Klucel (hydroxypropylcellulose) (HPC).
Setting [15] is: dose: 100.0 mg/kg/injection, schedule: Q01DX001 (ip), vehicle: Klucel (hydroxypropylcellulose) (HPC).
[16] abbreviates: dose: 100.0 mg/kg/injection, schedule: Q01DX001 (ip), vehicle: saline.
The mark [17] stands for this setting: dose: 200.0 mg/kg/injection, schedule: Q01DX001 (ip), vehicle: saline.
Where [18] appears, read: dose: 400.0 mg/kg/injection, schedule: Q01DX001 (ip), vehicle: saline.
[19] abbreviates: dose: 100.0 mg/kg/injection, schedule: Q04DX002 (ip), vehicle: Klucel (hydroxypropylcellulose) (HPC).
Setting [20] is: dose: 200.0 mg/kg/injection, schedule: Q04DX002 (ip), vehicle: Klucel (hydroxypropylcellulose) (HPC).

On to `COc1ccc(C(CC(=O)c2ccccc2)Sc2ccccc2N)cc1OC` (stereo not drawn), for which the T/C runs as follows: under setting [1], 97 % of control; (dose: 100.0 mg/kg/injection, schedule: Q01DX005 (ip), vehicle: Klucel (hydroxypropylcellulose) (HPC)) 101 % of control; under setting [2], 94 % of control; (dose: 100.0 mg/kg/injection, schedule: Q04DX002 (ip), vehicle: saline with Tween-80) 98 % of control; (dose: 200.0 mg/kg/injection, schedule: Q01DX005 (ip), vehicle: Klucel (hydroxypropylcellulose) (HPC)) 108 % of control; under setting [3], 94 % of control. The T/C runs as follows: (dose: 200.0 mg/kg/injection, schedule: Q04DX002 (ip), vehicle: saline with Tween-80) 106 % of control; under setting [4], 113 % of control.

As for `COc1ccc(C(=NO)c2ccc(OC)cc2)cc1`, the T/C runs as follows: (dose: 100.0 mg/kg/injection, schedule: Q01DX009 (ip), vehicle: saline) 102 % of control; under setting [5], 104 % of control; (dose: 200.0 mg/kg/injection, schedule: Q01DX009 (ip), vehicle: saline) 102 % of control; under setting [6], 93 % of control; (dose: 400.0 mg/kg/injection, schedule: Q01DX009 (ip), vehicle: saline) 107 % of control; under setting [7], 95 % of control.

As for `CC(O)(Cc1ccccc1)c1ccccc1` (stereo not drawn), the T/C reads like this: (dose: 44.0 mg/kg/injection, schedule: Q04DX003 (ip), vehicle: saline with Tween-80) 94 % of control; (dose: 66.0 mg/kg/injection, schedule: Q04DX003 (ip), vehicle: saline with Tween-80) 94 % of control; under setting [8], 102 % of control; under setting [9], 94 % of control; (dose: 150.0 mg/kg/injection, schedule: Q04DX003 (ip), vehicle: saline with Tween-80) 96 % of control; under setting [10], 98 % of control. Moreover, the T/C is 107 % of control under setting [11], 102 % of control under setting [12] and 104 % of control under setting [13].

In the case of `CCCCCCP(=O)(CCCCCC)C1CCCCC1`, the T/C was 94 % of control (dose: 25.0 mg/kg/injection, schedule: Q01DX001 (ip), vehicle: Klucel (hydroxypropylcellulose) (HPC)); 88 % of control under setting [14]; 102 % of control under setting [15]; 97 % of control (dose: 200.0 mg/kg/injection, schedule: Q01DX001 (ip), vehicle: saline with Tween-80).

`Cn1ccc[n+]1C`: the T/C runs as follows: under setting [16], 93 % of control; under setting [17], 101 % of control; under setting [18], 92 % of control.

In the case of `CC12CC3CC(C)(C1)CC(SC(=N)N)(C3)C2`, the T/C runs as follows: (dose: 10.0 mg/kg/injection, schedule: Q04DX002 (ip), vehicle: Klucel (hydroxypropylcellulose) (HPC)) 97 % of control; (dose: 20.0 mg/kg/injection, schedule: Q04DX002 (ip), vehicle: Klucel (hydroxypropylcellulose) (HPC)) 102 % of control; (dose: 40.0 mg/kg/injection, schedule: Q04DX002 (ip), vehicle: Klucel (hydroxypropylcellulose) (HPC)) 105 % of control.

Consider `Cc1c(CC(=O)O)c(=O)n(-c2ccccc2)n1C`, for which the T/C is, setting by setting: (dose: 75.0 mg/kg/injection, schedule: Q04DX003 (ip), vehicle: Klucel (hydroxypropylcellulose) (HPC)) 105 % of control; (dose: 150.0 mg/kg/injection, schedule: Q04DX003 (ip), vehicle: Klucel (hydroxypropylcellulose) (HPC)) 101 % of control; (dose: 300.0 mg/kg/injection, schedule: Q04DX003 (ip), vehicle: Klucel (hydroxypropylcellulose) (HPC)) 104 % of control.

Take `CN(C)C(=O)Sc1c(Cl)cc(S(=O)(=O)F)cc1Cl`: the T/C under setting [3] is 105 % of control.

As to `COc1ccc(C(=O)c2ccccc2)c(OC(=O)Nc2ccc(Cl)cc2)c1`, the T/C is 109 % of control under setting [2]; 105 % of control under setting [3]; 100 % of control (dose: 400.0 mg/kg/injection, schedule: Q01DX009 (ip), vehicle: Klucel (hydroxypropylcellulose) (HPC)).

As to `COC1OC(COC(c2ccccc2)(c2ccccc2)c2ccccc2)C(O)C(O)C1O` (stereo not drawn), the T/C runs as follows: under setting [1], 89 % of control; under setting [2], 93 % of control; under setting [3], 89 % of control.

In the case of `CCOc1nc(SCC)ncc1C`, the T/C is 107 % of control (dose: 100.0 mg/kg/injection, schedule: Q01DX009 (ip), vehicle: water); 101 % of control (dose: 100.0 mg/kg/injection, schedule: Q04DX003 (ip), vehicle: water); 106 % of control (dose: 200.0 mg/kg/injection, schedule: Q01DX009 (ip), vehicle: water); 95 % of control (dose: 200.0 mg/kg/injection, schedule: Q04DX003 (ip), vehicle: water); 103 % of control (dose: 400.0 mg/kg/injection, schedule: Q04DX003 (ip), vehicle: water).

On to `c1ccc2c(c1)CC1c3ccccc3CC21` (stereo not drawn), for which the T/C is, setting by setting: under setting [16], 109 % of control; under setting [17], 103 % of control; under setting [18], 98 % of control.

With `c1ccc(P2CCc3[nH]c4ccccc4c3C2)cc1` (stereo not drawn), the T/C under setting [8] is 97 % of control; the T/C under setting [5] is 100 % of control; the T/C under setting [10] is 110 % of control; the T/C under setting [6] is 96 % of control; the T/C under setting [12] was 100 % of control; the T/C under setting [7] is 113 % of control.

`O=[N+]([O-])c1ccc(P(=O)(Nc2ccc(Cl)cc2)Nc2ccc(Cl)cc2)cc1`: the T/C (dose: 75.0 mg/kg/injection, schedule: Q01DX001 (ip), vehicle: saline) was 86 % of control; the T/C (dose: 150.0 mg/kg/injection, schedule: Q01DX001 (ip), vehicle: saline) was 86 % of control; the T/C (dose: 300.0 mg/kg/injection, schedule: Q01DX001 (ip), vehicle: saline) was 91 % of control.

Regarding `O=C(CCCl)c1ccccc1`, the T/C under setting [19] is 97 % of control and the T/C under setting [20] was 94 % of control.

Regarding `CC1(C)N=C(N)N=C(N)N1c1ccc(Oc2ccc(S(=O)(=O)F)cc2)cc1`, the T/C runs as follows: under setting [14], 92 % of control; under setting [15], 95 % of control; (dose: 200.0 mg/kg/injection, schedule: Q01DX001 (ip), vehicle: Klucel (hydroxypropylcellulose) (HPC)) 100 % of control.

For `COc1cc(CC#N)cc(OC)c1`, the T/C (dose: 50.0 mg/kg/injection, schedule: Q01DX009 (ip), vehicle: saline with Tween-80) was 102 % of control and the T/C under setting [8] is 88 % of control.

Regarding `Nc1nc2ncn(C3OC(CO)C(O)C3O)c2c(=O)[nH]1` (stereo not drawn), the T/C is, setting by setting: under setting [16], 105 % of control; under setting [17], 104 % of control; under setting [18], 104 % of control.

With `O=C(O)c1c(F)c(F)c(Br)c(F)c1F`, the T/C is 168 % of control (dose: 25.6 mg/kg/injection, schedule: Q04DX002 (ip), vehicle: saline with Tween-80); 91 % of control (dose: 64.0 mg/kg/injection, schedule: Q04DX002 (ip), vehicle: saline with Tween-80); 94 % of control (dose: 160.0 mg/kg/injection, schedule: Q04DX002 (ip), vehicle: saline with Tween-80); 94 % of control under setting [4].

Regarding `O=C(O)CC(c1ccccc1)C(Nc1ccc2ccccc2c1)C(=O)O` (stereo not drawn), the T/C reads like this: under setting [19], 89 % of control; under setting [20], 100 % of control; (dose: 400.0 mg/kg/injection, schedule: Q04DX002 (ip), vehicle: Klucel (hydroxypropylcellulose) (HPC)) 96 % of control.

For the molecule `COC(=O)C1(C(=O)OC)C2C(=O)C3C(C21)C3(C(=O)OC(C)(C)C)C(=O)OC(C)(C)C` (stereo not drawn), the T/C under setting [8] was 95 % of control; the T/C under setting [9] is 101 % of control and 98 % of control; the T/C under setting [10] was 92 % of control; the T/C under setting [11] is 102 % of control and 88 % of control; the T/C under setting [12] is 92 % of control; the T/C under setting [13] was 91 % of control and 111 % of control.

For the molecule `COC1OCC(OC(C)=O)C(NC(C)=O)C1OC(C)=O` (stereo not drawn), the T/C was 100 % of control under setting [16], 101 % of control under setting [17] and 111 % of control under setting [18].

Consider `CC1C(Br)C(=O)NC(=O)N1Cc1ccccc1` (stereo not drawn), for which the T/C reads like this: (dose: 100.0 mg/kg/injection, schedule: Q01DX Z (ip), vehicle: methylcellulose (MC)) 92 % of control; (dose: 200.0 mg/kg/injection, schedule: Q01DX Z (ip), vehicle: methylcellulose (MC)) 94 % of control.
